Drawing on patent publication US10125123B2, “Small molecule IRE1-α inhibitors” (Cornell University, priority 2016, dated 2018), this text covers EC50 for 28 compounds.

The target of the assay is T1, IRE1α (Homo sapiens, UniProt O75460).
T1 construct: purchased SignalChem
T1 sequence (O75460 19-977): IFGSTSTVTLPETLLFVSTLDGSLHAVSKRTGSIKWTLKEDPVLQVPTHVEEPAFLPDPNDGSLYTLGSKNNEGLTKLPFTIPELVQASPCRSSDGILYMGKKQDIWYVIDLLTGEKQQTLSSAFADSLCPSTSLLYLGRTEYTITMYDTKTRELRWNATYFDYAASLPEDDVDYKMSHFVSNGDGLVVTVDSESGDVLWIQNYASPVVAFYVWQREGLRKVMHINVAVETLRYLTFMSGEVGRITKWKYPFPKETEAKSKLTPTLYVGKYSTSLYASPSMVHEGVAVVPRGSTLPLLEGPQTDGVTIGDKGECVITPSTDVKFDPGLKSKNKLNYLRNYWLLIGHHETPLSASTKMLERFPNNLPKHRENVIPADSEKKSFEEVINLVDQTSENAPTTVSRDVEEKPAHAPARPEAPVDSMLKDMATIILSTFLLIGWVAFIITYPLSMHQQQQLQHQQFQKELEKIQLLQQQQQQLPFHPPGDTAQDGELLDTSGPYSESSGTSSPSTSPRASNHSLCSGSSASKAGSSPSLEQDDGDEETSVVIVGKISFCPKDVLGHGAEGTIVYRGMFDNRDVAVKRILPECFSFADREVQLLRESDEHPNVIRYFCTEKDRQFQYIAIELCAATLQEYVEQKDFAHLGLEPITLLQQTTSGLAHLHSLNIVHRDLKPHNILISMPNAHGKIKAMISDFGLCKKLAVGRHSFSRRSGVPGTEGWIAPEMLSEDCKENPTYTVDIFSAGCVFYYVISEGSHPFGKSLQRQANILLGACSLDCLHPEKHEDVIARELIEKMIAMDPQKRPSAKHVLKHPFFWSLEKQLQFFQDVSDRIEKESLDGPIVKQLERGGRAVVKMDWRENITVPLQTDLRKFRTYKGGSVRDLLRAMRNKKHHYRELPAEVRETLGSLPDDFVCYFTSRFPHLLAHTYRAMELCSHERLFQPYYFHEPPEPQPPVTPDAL
Description: In vitro FRET assay (XBP1 RNA probe cleavage by IRE1α). The settings on record: biochemical FRET assay, 2 nM IRE1α. The protocol: In vitro FRET assay was performed to evaluate the ability of select compounds to inhibit IRE1, the results of which are summarized in the following table.
To perform the in vitro FRET assay, 1× complete assay buffer (CAB; […], 50 mM sodium citrate pH 7.15, 1 mM magnesium acetate, 0.02% Tween 20) was used to dilute SignalChem IRE1α in protein to a final concentration of 2 nM. Selected compounds were serially diluted with DMSO in a non-binding black 384-well plate for a total of 15 μl in each well. 2 μl of the serially diluted compound or DMSO control were then added to new wells containing 98 μl of 1×CAB, for a total volume of 100 μl, 10 μl of which were then transferred to wells of a new plate. 5 μl of the diluted IRE1α was then added to each well. 5 μl of a […] XBP1 RNA probe was then added to each well. Fluorescence was then read over 30 minutes in kinetic mode (485/515 nm). Two RNA probes were used, XBP1 wildtype (CAUGUCCGCAGCACAUG; SEQ ID NO: 1) which is able to be spliced by active IRE1α or XBP1 mutant (CAUGUCCCCAGCACAUG; SEQ ID NO: 2) which is unable to be spliced. Each probe contained a 5′ 6-FAM modification and a 3′ IOWA Black FQ modification. […]
Consider `Cc1c(NC(=O)Nc2ccc(CN3CCN(C)CC3)c(C(F)(F)F)c2)ccc2oc(-c3cnn4ccccc34)nc12` [Compound 18, 1-(4-methyl-2-(pyrazolo[1,5-a]pyridin-3-yl)benzo[d]oxazol-5 yl)-3-(4-((4-methylpiperazin-1-yl)methyl)-3-(trifluoromethyl)phenyl)urea], for which the EC50 was more than 100 µM. Compound `O=C(/C=C\c1ccccc1)Nc1ccc2oc(-c3cccnc3)nc2c1` [Compound 60, (Z)-3-phenyl-N-(2-(pyridin-3-yl)benzo[d]oxazol-5-yl)acrylamide] came in with an EC50 of 5 to 50 µM. The same measure for `Cc1cc2oc(-c3cnn4ccccc34)nc2cc1NC(=O)Nc1ccc(CN2CCN(C)CC2)c(C(F)(F)F)c1` [Compound 17, 1-(6-methyl-2-(pyrazolo[1,5-a]pyridin-3-yl)benzo[d]oxazol-5-yl)-3-(4-((4-methylpiperazin-1-yl)methyl)-3-(trifluoromethyl)phenyl)urea]: more than 100 µM. The same measure for `CN1CCN(Cc2ccc(NC(=O)Nc3cc(-c4ccc5nc(N)nc(N)c5c4)n(C)n3)cc2C(F)(F)F)CC1` [Compound 29, 1-(5-(2,4-diaminoquinazolin-6-yl)-1-methyl-1H-pyrazol-3-yl)-3-(4-((4-methylpiperazin-1-yl)methyl)-3-(trifluoromethyl)phenyl)urea]: not above 5 µM; for `CN1CCN(Cc2ccc(NC(=O)Nc3cc(-c4ccc5ccncc5c4)n(C)n3)cc2)CC1` [Compound 47, 1-(5-(isoquinolin-7-yl)-1-methyl-1H-pyrazol-3-yl)-3-(4-((4-methylpiperazin-1-yl)methyl)phenyl)urea]: more than 100 µM; for `CN1CCN(Cc2ccc(Nc3c(Nc4cc(-c5ccc6ccncc6c5)n(C)n4)c(=O)c3=O)cc2C(F)(F)F)CC1` [Compound 73, 3-((5-(isoquinolin-7-yl)-1-methyl-1H-pyrazol-3-yl)amino)-4-((4-((4-methylpiperazin-1-yl)methyl)-3-(trifluoromethyl)phenyl)amino) cyclobut-3-ene-1,2-dione]: not above 5 µM.

Compound `O=C(Nc1ccc(CN2CCNCC2)c(C(F)(F)F)c1)Nc1ccc2oc(-c3cccnc3)nc2c1` [Compound 13, 1-(4-(piperazin-1-ylmethyl)-3-(trifluoromethyl)phenyl)-3-(2-(pyridin-3-yl)benzo[d]oxazol-5-yl)urea] returned an EC50 of more than 100 µM. Compound `O=C(Nc1ccc(CN2CCN(Cc3ccccc3)CC2)c(C(F)(F)F)c1)Nc1ccc2oc(-c3cccnc3)nc2c1` [Compound 14, 1-(4-((4-benzylpiperazin-1-yl)methyl)-3-(trifluoromethyl)phenyl)-3-(2-(pyridin-3-yl)benzo[d]oxazol-5-yl)urea] registered an EC50 of 50 to 100 µM.

In turn, `CN1CCN(Cc2ccc(NC(=O)Nc3cc(-c4ccc5nc(C(F)F)[nH]c(=O)c5c4)n(C)n3)cc2C(F)(F)F)CC1` [Compound 8, 1-(5-(2-(difluoromethyl)-4-oxo-3,4-dihydroquinazolin-6-yl)-1-methyl-1H-pyrazol-3-yl)-3-(4-((4-methylpiperazin-1-yl)methyl)-3-(trifluoromethyl)phenyl)urea] showed an EC50 not above 5 µM. In the case of `Cn1nc(NC(=O)c2ccccc2)cc1-c1ccc2cc(N)ncc2c1` [Compound 67, N-(5-(3-aminoisoquinolin-7-yl)-1-methyl-1H-pyrazol-3-yl)benzamide], the EC50 was more than 100 µM. In turn, `CC1CCCCN1Cc1ccc(NC(=O)Nc2cc(-c3ccc4ccncc4c3)n(C)n2)cc1C(F)(F)F` (stereo not shown) [Compound 43, 1-(5-(isoquinolin-7-yl)-1-methyl-1H-pyrazol-3-yl)-3-(4-((2-methylpiperidin-1-yl)methyl)-3-(trifluoromethyl)phenyl)urea] returned a concentration for a half-maximal effect (EC50) of more than 100 µM. With `COc1ccccc1NC(=O)Nc1cc(-c2ccc3ccncc3c2)n(C)n1` [Compound 65, 1-(5-(isoquinolin-7-yl)-1-methyl-1H-pyrazol-3-yl)-3-(2-methoxyphenyl)urea], the EC50 was more than 100 µM. With `CN1CCN(Cc2ccc(NC(=O)Nc3cc(-c4ccc5ccncc5c4)n(C)n3)cc2Br)CC1` [Compound 44, 1-(3-bromo-4-((4-methylpiperazin-1-yl)methyl)phenyl)-3-(5-(isoquinolin-7-yl)-1-methyl-1H-pyrazol-3-yl)urea], the EC50 fell in the range of 5 to 50 µM. As to `CN1CCN(Cc2ccc(NC(=O)Nc3cc(-c4ccc5cc(N)ncc5c4)[nH]n3)cc2C(F)(F)F)CC1` [Compound 52, 1-(5-(3-aminoisoquinolin-7-yl)-1H-pyrazol-3-yl)-3-(4-((4-methylpiperazin-1-yl)methyl)-3-(trifluoromethyl)phenyl)urea], the EC50 was not above 5 µM. As for `CN1CCN(Cc2ccc(NC(=O)Cc3cc(-c4ccc5cc(N)ncc5c4)n(C)n3)cc2C(F)(F)F)CC1` [Compound 32, 2-(5-(3-aminoisoquinolin-7-yl)-1-methyl-1H-pyrazol-3-yl)-N-(4-((4-methylpiperazin-1-yl)methyl)-3-(trifluoromethyl)phenyl)acetamide], the concentration for a half-maximal effect (EC50) was more than 100 µM. With `CN1CCN(Cc2ccc(NC(=O)Nc3nc(-c4ccc5ccncc5c4)n(C)n3)cc2C(F)(F)F)CC1` [Compound 34, 1-(5-(isoquinolin-7-yl)-1-methyl-1H-1,2,4-triazol-3-yl)-3-(4-((4-methylpiperazin-1-yl)methyl)-3-(trifluoromethyl)phenyl)urea] the figure was 5 to 50 µM; with `CN1CCN(Cc2ccc(NC(=O)Nc3nn(C)c4cc(-c5cnc(N)cn5)ccc34)cc2C(F)(F)F)CC1` [Compound 10, 1-(6-(5-aminopyrazin-2-yl)-1-methyl-1H-indazol-3-yl)-3-(4-((4-methylpiperazin-1-yl)methyl)-3-(trifluoromethyl)phenyl)urea], 5 to 50 µM. Consider `CN1CCN(Cc2ccc(NC(=O)Nc3cc(-c4ccc(-c5cccn6ccnc56)cc4)n(C)n3)cc2C(F)(F)F)CC1` [Compound 54, 1-(5-(4-(imidazo[1,2-a]pyridin-8-yl)phenyl)-1-methyl-1H-pyrazol-3-yl)-3-(4-((4-methylpiperazin-1-yl)methyl)-3-(trifluoromethyl)phenyl)urea], for which the EC50 is not above 5 µM. On to `CN1CCN(Cc2ccc(NC(=O)Nc3cc(-c4ccnc5c4ccn5C)n(C)n3)cc2C(F)(F)F)CC1` [Compound 12, 1-(1-methyl-5-(1-methyl-1H-pyrrolo[2,3-b]pyridin-4-yl)-1H-pyrazol-3-yl)-3-(4-((4-methylpiperazin-1-yl)methyl)-3-(trifluoromethyl)phenyl)urea], for which the EC50 was in the range of 5 to 50 µM. With `CN1CCN(Cc2ccc(NC(=O)Nc3cc(-c4ccc5cnoc5c4)n(C)n3)cc2C(F)(F)F)CC1` [Compound 2, 1-(5-(benzo[d]isoxazol-6-yl)-1-methyl-1H-pyrazol-3-yl)-3-(4-((4-methylpiperazin-1-yl)methyl)-3-(trifluoromethyl)phenyl)urea] the figure was 5 to 50 µM.

As for `CN1CCN(Cc2ccc(NC(=O)Nc3cc(-c4ccc5cc(N)ncc5c4)n(C)n3)cc2C(F)(F)F)CC1` [Compound 26, 1-(5-(3-aminoisoquinolin-7-yl)-1-methyl-1H-pyrazol-3-yl)-3-(4-((4-methylpiperazin-1-yl)methyl)-3-(trifluoromethyl)phenyl)urea], the EC50 is not above 5 µM. `CN1CCN(Cc2ccc(NC(=O)Nc3cc(-c4ccc5oncc5c4)n(C)n3)cc2C(F)(F)F)CC1` [Compound 3, 1-(5-(benzo[d]isoxazol-5-yl)-1-methyl-1H-pyrazol-3-yl)-3-(4-((4-methylpiperazin-1-yl)methyl)-3-(trifluoromethyl)phenyl)urea] displayed an EC50 of more than 100 µM.

`CC(C)N1CCN(Cc2ccc(NC(=O)Nc3cc(-c4ccc5ccncc5c4)n(C)n3)cc2C(F)(F)F)CC1` [Compound 37, 1-(4-((4-isopropylpiperazin-1-yl)methyl)-3-(trifluoromethyl)phenyl)-3-(5-(isoquinolin-7-yl)-1-methyl-1H pyrazol-3-yl)urea] yielded a 50% effective concentration (EC50) not above 5 µM. Take `CN1CCC(Cc2ccc(NC(=O)Cc3cc(-c4ccc5nc(N)ncc5c4)n(C)n3)cc2C(F)(F)F)CC1` [Compound 49, 2-(5-(2-aminoquinazolin-6-yl)-1-methyl-1H-pyrazol-3-yl)-N-(4-((1-methylpiperidin-4-yl)methyl)-3-(trifluoromethyl)phenyl)acetamide]: the concentration for a half-maximal effect (EC50) is more than 100 µM. With `CN1CCN(Cc2ccc(NC(=O)Nc3cc(-c4cccn5ccnc45)n(C)n3)cc2C(F)(F)F)CC1` [Compound 5] the figure was more than 100 µM. Turning to `O=C(Nc1cccc(C(F)(F)F)c1)Nc1ccc2oc(-c3cccnc3)nc2c1` [Compound 57, 1-(2-(pyridin-3-yl)benzo[d]oxazol-5-yl)-3-(3-(trifluoromethyl)phenyl)urea], the EC50 fell in the range of 5 to 50 µM. In turn, `CCN1CCN(Cc2ccc(NC(=O)Nc3cc(-c4ccc5ccncc5c4)n(C)n3)cc2C(F)(F)F)CC1` [Compound 35, 1-(4-((4-ethylpiperazin-1-yl)methyl)-3-(trifluoromethyl)phenyl)-3-(5-(isoquinolin-7-yl)-1-methyl-1H-pyrazol-3-yl)urea] displayed an EC50 not above 5 µM.

In turn, `CN1CCN(Cc2ccc(NC(=O)Cc3cc(-c4ccc5nc(N)ncc5c4)n(C)n3)cc2C(F)(F)F)CC1` [Compound 33, 2-(5-(2-aminoquinazolin-6-yl)-1-methyl-1H-pyrazol-3-yl)-N-(4-((4-methylpiperazin-1-yl)methyl)-3-(trifluoromethyl)phenyl)acetamide] gave an EC50 of 5 to 50 µM.
